Values joined by “and” are separate entries in the source; they are usually repeats but may differ in a detail not shown here. Identical values can stand only once.
Tests used:
[1] = system: souris dépendantes à la morphine; assay: Naloxone-precipitated withdrawal syndrome (jumping) in morphine-treated mice, repeated 4-day oral treatment; type: in vivo
Source text: (§1) Les expériences ont été réalisées chez des souris mâles Swiss normales ou surrénalectomisées (Charles River, France) d'un poids corporel compris entre 20 et 25 g. Durant les essais, les animaux ont eu libre accès à la nourriture et à l'eau de boisson. Le nombre d'animaux par groupe est de 10 à 13 souris.
(§2) Les antiglucocorticoïdes : • AG1 (17β-hydroxy 11β-(4-diméthylaminophényl) 17α-(prop-1-ynyl) estra 4,9-dièn-3-one), • AG2 (17β-hydroxy 10β-[(4-méthylphényl) méthyl] 17α-(prop-1-ynyl) estra 4,9-dièn-3-one), • AG3 (γ-lactone de l'acide 17β-hydroxy 11β-(4-diméthylaminophényl) 21-méthylène 3-oxo 19-nor 17α-(pregna 4,9-dièn-21-carboxylique) • AG4 10β-benzyl 17β-hydroxy 17α-(prop-1-ynyl) estra 4,9(11)-dièn-3-one • AG5 11β-[4-(diméthylamino) phényl] 17α-hydroxy 17β-(3-hydroxypropyl) 13α-méthyl gona-4,9-dièn-3-one (onapristone) • AG6 11β-[4-(diméthylamino) phényl] 17β-hydroxy 17α-(3-hydroxy-1-propényl) estra-4,9-dièn-3-one (lilopristone) • AG7 17α-acétoxy 11β-[4-(diméthylamino) phényl] 19-nor pregna 4,9-dièn-3,20-dione • et l'antiprogestérone AP1 (17R 11β-[4-(méthylthio) phényl] spiro (estra-4,9-dièn-17,2'(5'H) furan) 3-one décrit dans WO 87/05908 ex. 3) ont été mis en suspension dans de la méthyl cellusose à 0,5 % et administrés par voie orale (p.o). La morphine a été mise en solution dans du sérum physiologique et administrée par voie sous-cutanée (s.c). Enfin, le chlorhydrate de naloxone a été solubilisé dans de l'eau distillée et injecté par voie intra-péritonéale.
Tous les produits ont été administrées à l'animal sous un volume de 25 ml/kg.
Le premier jour (J1), les animaux ont reçu 5 injections sous-cutanées avec des doses croissantes de morphine réparties dans la matinée et sur le début de l'après midi, à une heure d'intervalle. Les 3 jours suivants (J2, J3, J4), ces mêmes animaux ont été traités le matin par deux administrations de la dose maximale utilisée au jour 1.
Les antiglucocorticoïdes AG1, AG2, AG3, AG4 et AG5 ont été administrées à la dose de 100 mg/kg par voie orale sous forme d'un traitement quotidient effectué 2 heures avant l'administration de morphine et ceci durant 4 jours.
La technique utilisée s'inspire de celle décrite par Way et al. J. Pharmacol. Exp. Ther. (1969), 167 : 1-8 et Huidobro et Maggiolo Acta Physiol. Pharmacol. Latinoam. (1961), 11 : 201-9. Ainsi, l'administration réitérée d'un morphinique induit un phénomène de dépendance physique qui peut être facilement mis en évidence par la précipitation d'un syndrome de sevrage à l'aide d'un antagoniste opiacé tel que la naloxone. Ce syndrome se manifeste, chez la souris sous la forme d'un comportement stéréotypé caractérisé par l'apparition de sauts répétitifs dont le nombre est en relation avec la durée et l'intensité du traitement par le morphinique.
Le sevrage des animaux a été réalisé le quatrième jour; trois heures après le dernier traitement, à l'aide de chlorhydrate de naloxone injecté par voie intrapéritonéale à la dose de 100 mg/kg. Immédiatement après cette injection, les animaux ont été placés individuellement dans des cylindres en plexiglass (hauteur = 40 cm, diamètre = 20 cm). Le nombre de sauts consécutifs au sevrage et effectués par chaque animal a été compté durant une période de 10 minutes.
Les résultats qui figurent dans les tableaux représentent les moyennes des valeurs individuelles assorties de l'erreur standard à la moyenne (m ± esm).

[2] = system: souris dépendantes à la morphine; assay: Naloxone-precipitated withdrawal syndrome (jumping) in morphine-treated mice, acute oral treatment 24 h before withdrawal; type: in vivo; conditions: result in words; 100 mg/kg p.o single dose 24 h before naloxone
Source text: as §1
as §2, with “Enfin, le chlorhydrate de naloxone a été solubilisé dans de l'eau distillée et injecté par voie intra-péritonéale.” left out

[3] = Morphine 799 mg/kg s.c (cumulated over 4 days) + compound 4 x 100 mg/kg p.o, naloxone 100 mg/kg ip, normal mice
[4] = compound alone, 4 x 100 mg/kg p.o, no morphine, naloxone 100 mg/kg ip on day 4, normal mice

| SMILES | Nombre de sauts/10 minutes (m ± esm) [1, 3] [sauts/10 minutes] | Nombre de sauts/10 minutes (m ± esm) [1, 4] [sauts/10 minutes] | effet sur le syndrome de sevrage morphinique [2] | Nombre de sauts/10 minutes (m ± esm) ([1]; in vivo) |
| --- | --- | --- | --- | --- |
| CC#C[C@]1(O)CC[C@H]2[C@@H]3CCC4=CC(=O)CCC4=C3[C@@H](c3ccc(N(C)C)cc3)C[C@@]21C [AG1, 17β-hydroxy 11β-(4-diméthylaminophényl) 17α-(prop-1-ynyl) estra 4,9-dièn-3-one] | 68 ± 12 | 0 | – | – |
| C=C1C[C@@]2(CC[C@H]3[C@@H]4CCC5=CC(=O)CCC5=C4[C@@H](c4ccc(N(C)C)cc4)C[C@@]32C)OC1=O [AG3] | 66 ± 7 | 3 ± 2 | – | – |
| CC#CC1(O)CCC2C3CCC4=CC(=O)CCC4(Cc4ccccc4)C3=CCC21C (stereo not drawn) [AG4, 10β-benzyl 17β-hydroxy 17α-(prop-1-ynyl) estra 4,9(11)-dièn-3-one] | 72 ± 7 | 1 ± 1 | – | – |
| CC#CC1(O)CCC2C3CCC4=CC(=O)CCC4(Cc4ccc(C)cc4)C3=CCC21C (stereo not drawn) [AG2, 17β-hydroxy 10β-[(4-méthylphényl)méthyl] 17α-(prop-1-ynyl) estra 4,9-dièn-3-one] | 79 ± 9 | 0 | inactive | – |
| CSc1ccc([C@H]2C[C@@]3(C)[C@@H](CC[C@@]34C=CCO4)[C@@H]3CCC4=CC(=O)CCC4=C32)cc1 [AP1, 17R 11β-[4-(méthylthio)phényl] spiro (estra-4,9-dièn-17,2'(5'H)furan) 3-one, reference compound] | – | – | n'a pas modifié de façon significative | – |
| CN(C)c1ccc([C@H]2C[C@]3(C)[C@@H](CC[C@]3(O)CCCO)[C@@H]3CCC4=CC(=O)CCC4=C32)cc1 [AG5, 11β-[4-(diméthylamino)phényl] 17α-hydroxy 17β-(3-hydroxypropyl) 13α-méthyl gona-4,9-dièn-3-one] | 68 ± 12 | 1 ± 1 | – | – |
| CN1CC[C@]23c4c5ccc(O)c4O[C@H]2[C@@H](O)C=C[C@H]3[C@H]1C5 [Morphine, morphine, reference compound] | – | – | – | 115 ± 21 sauts/10 minutes and 97 ± 13 sauts/10 minutes and 117 ± 14 sauts/10 minutes and 103 ± 10 sauts/10 minutes |
